Calls of active or inactive are those of the source. How the calls were made is not given here.
biological target: Peptidyl-prolyl cis-trans isomerase FKBP1A (Homo sapiens) (UniProt P62942); experiment: FKBP12 binders, biophysical, NMR detection (AID 608); details: NMR binding, purified FKBP12
Sequence (P62942 whole entry, looked up): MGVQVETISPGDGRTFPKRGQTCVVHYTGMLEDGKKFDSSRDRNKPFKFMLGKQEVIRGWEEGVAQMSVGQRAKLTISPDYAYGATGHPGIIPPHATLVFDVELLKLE

Structure (SMILES)	Kd
CC(=O)N1N=C(N)SC1c1cccnc1 (stereo not drawn)	> 4 mM (inactive)
CCOC(=O)c1c(C)nc2sccn12	> 4 mM (inactive)
COc1cc(N)ccc1NC(=O)c1cccs1	> 4 mM (inactive)
NC(=O)c1ccc(NC(=O)c2cccnc2)cc1	> 4 mM (inactive)
Cc1nnc(-n2cnc3ccccc32)c2ccccc12	> 4 mM (inactive)
CNc1nc(OC)nc(N2CCOCC2)n1	> 4 mM (inactive)
C[n+]1ccc(C(=O)[O-])cc1	> 4 mM (inactive)
CSc1ncc(C(=O)O)n1Cc1ccccc1	> 4 mM (inactive)
CCN1C(=O)c2c(C)nc3ccccc3c2C1=O	> 4 mM (inactive)
NC(=O)CCn1c(=O)oc2ccccc21	> 4 mM (inactive)
CC(=O)OC1CCC2(C)C(=CC=C3C2CCC2(C)C3CCC2C(C)/C=C/C(C)C(C)C)C1(C)C (stereo not drawn)	> 4 mM (inactive)
O=C(Nn1c(=S)[nH]c2ccccc2c1=O)c1ccncc1	> 4 mM (inactive)
CCN1C(=O)N(CO)C2C1N(C)C(=O)N2C (stereo not drawn)	> 4 mM (inactive)
Nc1cccc(CC(=S)N2CCOCC2)c1	> 4 mM (inactive)
COC(=O)c1ccc2snnc2c1	> 4 mM (inactive)
CSc1ccc(/C=c2\sc3ncnn3c2=O)cc1	> 4 mM (inactive)
Cc1ccccc1NC(=O)CC1NCCNC1=O (stereo not drawn)	> 4 mM (inactive)
O=C1c2ccccc2C(=O)N1Cc1ccco1	> 4 mM (inactive)
Cc1noc(C)c1C(=O)N1CCc2ccccc2C1	> 4 mM (inactive)
C=CCn1c(=S)[nH]c2ccc(Br)cc2c1=O	> 4 mM (inactive)
Oc1cccc(N2CCOCC2)c1	> 4 mM (inactive)
O=S(=O)(Cc1ccccc1)N1CCCCCC1	> 4 mM (inactive)
CS(=O)(=O)N/N=C/c1cccs1	> 4 mM (inactive)
Nc1cc(=O)[nH]c(SCC(=O)NCc2ccccc2)n1	> 4 mM (inactive)

Structure (SMILES)	Kd
Nc1cccc(-c2cnco2)c1	> 4 mM (inactive)
NCc1cccc(-n2cccc2)c1	> 4 mM (inactive)
COc1ccc(/C=C2/N=C(N)SC2=O)cc1	> 4 mM (inactive)
CC(=O)c1cc2c(s1)SCC(=O)N2	> 4 mM (inactive)
CCCCNS(=O)(=O)c1ccc(OCC(=O)N2CCOCC2)cc1	inactive
O=S(=O)(Nc1ccc(Cl)c(Cl)c1)N1CCOCC1	inactive
COc1cc(O)c2c(=O)c(O)c(-c3ccc(O)c(O)c3)oc2c1	> 4 mM (inactive)
COc1ccc(C)cc1S(=O)(=O)N1CCCCC1	> 4 mM (inactive)
OC[C@H]1O[C@@](CO)(O[C@@H]2O[C@H](CO)[C@@H](O)[C@H](O)[C@H]2O)[C@@H](O[C@@H]2O[C@H](CO)[C@@H](O)[C@H](O)[C@H]2O)[C@@H]1O	> 4 mM (inactive)
COc1cc(OC)cc(-c2nc(N)n[nH]2)c1	> 4 mM (inactive)
NC(=O)c1ccc(N2C(=O)C=CC2=O)cc1Cl	> 4 mM (inactive)
CC(=O)Nc1cccc(-c2nc3ccccc3c(=O)o2)c1	> 4 mM (inactive)
COc1cc(OC)c2c(c1)O[C@H](c1ccc(OC)c(OC)c1)[C@@H](O)C2	> 4 mM (inactive)
COc1cccc(Oc2ccc(N)cn2)c1	> 4 mM (inactive)
O=C(c1ccc(N2CCNCC2)cc1)c1cccnc1	> 4 mM (inactive)
O=C1NCCCC1C(=O)N1CCCCC1 (stereo not drawn)	> 4 mM (inactive)
O=C(Nc1cccc(O)c1)c1ccccc1	> 4 mM (inactive)
CSc1ccccc1NC(=O)c1ccc(C)o1	> 4 mM (inactive)
COC(=O)c1ccc(NC(=O)CC2NCCNC2=O)cc1 (stereo not drawn)	> 4 mM (inactive)
C=C(C)[C@H]1CC=C(C(=O)O)CC1	> 4 mM (inactive)
COc1ccc(S(N)(=O)=O)cc1	> 4 mM (inactive)
CC(=O)Nc1cccc(N(C)S(C)(=O)=O)c1	> 4 mM (inactive)
Nc1ncnc2c1ncn2C1O[C@H](COP(=O)(O)O)[C@@H](O)[C@H]1O (stereo partly drawn)	> 4 mM (inactive)
CC(=O)c1nnc2cc(C)nn2c1C	> 4 mM (inactive)
